Data published in patent US6410328B1, “Sensitizing cells to compounds using lipid-mediated gene and compound delivery” (Protiva Biotherapeutics Inc., priority 1998, dated 2002).

How the values were obtained:
[1] = Plasma clearance and in vivo release of free and liposomal GCV in B16 tumored mice (Example 9); parameters: species or system mouse; conditions: 1 hr after single iv dose, 25 mg/kg GCV
Description: Large unilamellar vesicles were prepared according to the method of Hope, et al., Biochem. Biophys. Acta. 812:55-65 (1985). 55 mole % sphingomyelin and 45 mole % of cholesterol were dissolved in chloroform with a drop of methanol and approximately 0.035 μCi of ^14C-CHE. Lipids were dried down under a stream of nitrogen gas and the resulting lipid film was then placed under high vacuum for at least 3 hrs. A solution of ganciclovir containing ^3H-GCV was made up in 30% ethanol, 70% HBS (20 mM Hepes, 145 mM NaCl pH 7.45) to 50 or 100 mg/mL depending on the sample size. The lipid to GCV weight ratio was initially 1 to 1. The GCV solution was added to the lipid film. […] The lipid concentration was determined by scintillation counting of ^14C-CHE label. The GCV concentration was determined by counting ^3H-GCV and a Bligh Dyer assay.
Groups of four female C57BL/6 mice per time point were injected subcutaneously with 150,000 B16 tumor cells. […] Circulating levels of lipid and GCV were determined at 15 min, 1, 8, 24 and 48 hrs for the liposomal GCV groups. Levels of GCV were determined at 15 min and 1 hr for the free GCV groups. […] Lipid and GCV levels in the plasma were determined. Lipid and GCV were measured by counting ^14C-CHE and ^3H-GCV. One hundred or 200 μL aliquots of plasma were measured on a Beckman LS3801 scintillation counter.

[2] = Organ biodistribution of free and liposomal GCV in B16 tumored mice (Example 10); format: in vivo, mouse
Description: (§1) Groups of four female C57BL/6 mice per time point were injected subcutaneously with 150,000 B16 tumor cells. The tumors were grown for 14 days at which time a single iv dose of free GCV or liposomal GCV was given via the lateral tail vein. This dose, given in a total of 200 μL, contained approximately 5.6 mg (10 μmoles) lipid and 0.5 mg (1.96 μmoles) GCV resulting in lipid and GCV doses of 300 mg/kg and 25 mg/kg, respectively. Circulating levels of lipid and GCV were determined at 15 min, 1, 8, 24 and 48 hrs for the liposomal GCV groups. Levels of GCV were determined at 15 min and 1 hr for the free GCV groups. At each time point, animals were anesthetized with ketamine/xylazine and blood was collected via cardiac puncture. Blood was put into EDTA coated microtainers and spun at 500 g for 10 min in order to pellet blood cells and obtain plasma. Lipid and GCV levels in the plasma were determined. Lipid and GCV were measured by counting ^14C-CHE and ^3H-GCV. One hundred or 200 μL aliquots of plasma were measured on a Beckman LS3801 scintillation counter.
Biodistribution data was collected from those mice that were in the pharmacokinetic studies. Following heart puncture, mice were terminated by cervical dislocation. Tissues were harvested from each animal and weighed. Saline was added to each organ prior to homogenization by either a Polytron homogenizer (livers) or a Fast Prep® machine. Tissues were solubilized in Solvable for 3 to 16 hr at 50° C. The samples were then cooled to room temperature before defoaming and decolourizing with EDTA and hydrogen peroxide respectively. Picofluorscintillation fluid was added to the samples prior to counting on the scintillation counter.

[3] = in vivo; conditions: female, C57BL/6, mouse, iv, 25 mg/kg
Description: as §1, with “counter. […]” for “counter.”
Tumor bearing mice were treated intravenously with 25 mg/kg of free or liposomal GCV. Lipid and GCV were quantified using ^14C-CHE and ^3H-GCV labels. […] Free ganciclovir is rapidly cleared from the tumor, with only 1.1+/−0.1 % of the total injected dose per gram of tumor detected at 1 hr. […]

[4] = tested on: B16 murine melanoma cells stably transfected with HSV-TK; experiment: Efficacy of liposomal ganciclovir in the B16TK tumor model (Example 11); format: in vivo, mouse; conditions: day 18; 25 mg/kg ganciclovir every other day from day five, six injections
Description: FIG. 13 illustrates efficacy of liposomal ganciclovir in the B16TK tumor model. Female C57BL/6 mice were seeded subcutaneously in the hind flank with 150,000 B16 murine melanoma cells stably transfected with HSV-TK. Five days later, tumor measurement began. Starting on day five, mice were treated with liposomal or free GCV (25 mg/kg ganciclovir) or HBS (Hepes Buffered Saline) every other day for a total of six injections. Measurements at day 18 indicate that tumors in the control mice are 5-fold larger than those of the treated groups. Tumor volume was determined by measuring tumor in three dimensions with calipers.
Groups of 4 or 5 female C57BL/6 mice were injected intradermally with B16 cells stably transfected with HSV-TK. Once tumors were measurable (day 5), the mice were injected intravenously with liposomal GCV (25 mg/kg GCV). Injections were continued every other day for 6 injections. Tumor measurements were typically taken every other day.

## Nc1nc(O)c2ncn(COC(CO)CO)c2n1 [free GCV, ganciclovir]
[1]
  injected dose remaining in circulation: 0.4 % of the injected dose
[2]; 15 min and 1 hr, except kidneys at 15 min
  GCV content of organs assayed (liver, lungs, spleen, kidneys): essentially absent
[2]; 15 minute time point
  GCV found in the kidneys: 3.5+/−1.8 % of the total injected dose
[2]; 15 minutes after administration
  GCV found in the liver: 3.1+/−0.1 % of the initial injected dose
[2]; 1 hr (peak for liposomal GCV)
  GCV in the spleen: 0.04+/−0.02 % of the total injected dose
[3]
  tissue uptake at 1 h: 1.1 %ID/g
[4]
  tumor size in control HBS-treated mice relative to treated groups: 5 fold
